The text below walks through data of ChEMBL document CHEMBL3227984, “5-Substituted uracil arabinonucleosides as potential antiviral agents” (J Med Chem, 1979).

The source made the active and inactive calls. The calls are words filed in the database; no cut-off is given here.

The test concerns Vaccinia virus. The test can be described thus: Antiviral activity against Vaccinia virus infected in human skin fibroblasts assessed as inhibition of virus-induced cytopathogenicity. It is filed as functional, organism-based. Conditions: Orthopoxvirus vaccinia.
As to `O=c1ccn([C@@H]2O[C@H](CO)[C@@H](O)[C@@H]2O)c(=O)[nH]1` [ARAURIDINE], the inhibition entry is “Active”. Then `O=c1[nH]c(=O)n([C@@H]2O[C@H](CO)[C@@H](O)[C@@H]2O)cc1O`, with “Active”; and `O=c1[nH]c(=O)n([C@@H]2O[C@H](CO)[C@@H](O)[C@@H]2O)cc1[N+](=O)[O-]`, with “Active”; and `N#Cc1cn([C@@H]2O[C@H](CO)[C@@H](O)[C@@H]2O)c(=O)[nH]c1=O`, with “Active”. Then `Cc1cn([C@@H]2O[C@H](CO)[C@@H](O)[C@@H]2O)c(=O)[nH]c1=O`, with “Active”.
